Details in all cases: average where tested multiple times
For experiment [1], the target named is T1, BCAT2 (Homo sapiens, UniProt O15382).
T1 sequence (O15382 28-392): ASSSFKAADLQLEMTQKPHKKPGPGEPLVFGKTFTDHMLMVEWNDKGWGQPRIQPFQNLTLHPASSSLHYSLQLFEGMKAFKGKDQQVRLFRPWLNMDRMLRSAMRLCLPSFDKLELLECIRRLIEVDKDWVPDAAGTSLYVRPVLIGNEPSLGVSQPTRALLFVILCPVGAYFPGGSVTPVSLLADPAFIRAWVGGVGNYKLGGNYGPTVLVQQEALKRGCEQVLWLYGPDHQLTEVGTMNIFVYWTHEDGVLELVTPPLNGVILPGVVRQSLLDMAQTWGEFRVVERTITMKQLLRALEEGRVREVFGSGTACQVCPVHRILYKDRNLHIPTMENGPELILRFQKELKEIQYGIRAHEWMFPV
Kind of experiment: BCAT2 in vitro enzyme inhibition assay (resazurin/diaphorase-coupled fluorescence). Type of experiment: biochemical. A digest of the protocol: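 Coupled fluorescence readout: glutamate formed from L-leucine/α-ketoglutarate transamination drives GDH/NAD/diaphorase reduction of resazurin (Ex 540/Em 590). Human BCAT2 was first exposed 1 h at room temperature to compound, top final 100 μM in 3-fold, 10-point series; substrate reaction ran 1 h before SDS quench, in technical duplicate with DMSO max and enzyme-free min controls.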
In general terms: The colour change of resazurin is a common sign of viable cells or microbes.

The target in experiment [2] is T2, hBCAT1 (Homo sapiens, UniProt P54687).
T2 sequence (P54687 1-386): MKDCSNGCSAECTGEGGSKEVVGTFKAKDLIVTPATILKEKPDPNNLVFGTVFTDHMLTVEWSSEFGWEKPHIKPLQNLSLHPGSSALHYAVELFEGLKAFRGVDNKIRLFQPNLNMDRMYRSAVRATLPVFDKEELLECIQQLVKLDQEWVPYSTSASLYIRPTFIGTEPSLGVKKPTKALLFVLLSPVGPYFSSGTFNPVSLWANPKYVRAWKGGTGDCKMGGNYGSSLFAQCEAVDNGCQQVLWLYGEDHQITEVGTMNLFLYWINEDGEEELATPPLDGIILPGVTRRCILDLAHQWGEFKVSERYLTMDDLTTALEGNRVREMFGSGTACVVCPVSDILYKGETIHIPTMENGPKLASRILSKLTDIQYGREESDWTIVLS
Description: BCAT1 in vitro enzyme inhibition assay (resazurin/diaphorase-coupled fluorescence). Type of experiment: biochemical. A digest of the protocol:
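Human BCAT1 activity read by resazurin/diaphorase-coupled fluorescence. Compounds added from 50× DMSO stocks at 1:50, giving 10-point 3-fold titrations from 100 μM top final concentration. Run in technical duplicate; repeat tests averaged.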

For experiment [3], the target named is T1, BCAT2. Kind of experiment: BCAT2 in vitro cell inhibition using engineered A549 cells (KMV cell assay, 13C6-KMV by LC-MS/MS). Set-up: The result was an engineered A549 cell line that expressed endogenous BCAT2; endogenous in cells; host or cells: A549 cells with MUT and BCAT1 knocked out by CRISPR/CAS9. Type of experiment: cell-based.

What is called IC50 is the point on the concentration scale where inhibition reaches its midpoint.

For the compound `CC(C)Cc1nc2cnc(-n3cc(F)cn3)cc2n1[C@@H]1CCC[C@H](NC(=O)c2ncc(Cl)s2)[C@H]1O` [Example 232, 5-chloro-N-((1S,2R,3R)-3-(6-(4-fluoro-1H-pyrazol-1-yl)-2-isobutyl-1H-imidazo[4,5-c]pyridin-1-yl)-2-hydroxycyclohexyl)thiazole-2-carboxamide], the IC50 is at most 0.1 µM in experiment [1], under 0.5 µM in experiment [2] and 0.5 to 1 µM in experiment [3].
Consider `CO[C@@H]1[C@@H](NC(=O)c2ncc(Cl)s2)CCC[C@H]1n1c(-c2ccccc2F)nc2cnc(-c3nc[nH]n3)cc21` [Example 234, 5-chloro-N-((1S,2R,3R)-3-(2-(2-fluorophenyl)-6-(1H-1,2,4-triazol-3-yl)-1H-imidazo[4,5-c]pyridin-1-yl)-2-methoxycyclohexyl)thiazole-2-carboxamide], for which the IC50 in experiment [1] is at most 0.1 µM; in experiment [2], 1 to 5 µM; in experiment [3], 0.5 to 1 µM.
The like results for `CC(C)Cc1nc2cnc(-c3ccccn3)cc2n1[C@@H]1CCC[C@H](NC(=O)c2ncc(Cl)s2)[C@H]1O` [Example 235, 5-chloro-N-((1S,2R,3R)-2-hydroxy-3-(2-isobutyl-6-(pyridin-2-yl)-1H-imidazo[4,5-c]pyridin-1-yl)cyclohexyl)thiazole-2-carboxamide] were, in that order, at most 0.1 µM, under 0.5 µM and at most 0.1 µM.
The like results for `Cc1coc(-c2cc3c(cn2)nc(-c2ccccc2F)n3[C@@H]2CCC[C@H](NC(=O)c3ncc(Cl)s3)[C@H]2O)n1` [Example 238, 5-chloro-N-((1S,2R,3R)-3-(2-(2-fluorophenyl)-6-(4-methyloxazol-2-yl)-1H-imidazo[4,5-c]pyridin-1-yl)-2-hydroxycyclohexyl)thiazole-2-carboxamide] were, in that order, at most 0.1 µM, under 0.5 µM and at most 0.1 µM.
For `O=C(N[C@H]1CCC[C@@H](n2c(-c3ccccc3F)nc3cnc(-c4ccn[nH]4)cc32)[C@@H]1O)c1ncc(Cl)s1` [Example 240, 5-chloro-N-((1S,2R,3R)-3-(2-(2-fluorophenyl)-6-(1H-pyrazol-5-yl)-1H-imidazo[4,5-c]pyridin-1-yl)-2-hydroxycyclohexyl)thiazole-2-carboxamide] the same measures were at most 0.1 µM, under 0.5 µM and at most 0.1 µM.
Consider `O=C(N[C@H]1CCC[C@@H](n2c(-c3ccccc3F)nc3cnc(-c4ccccn4)cc32)[C@@H]1O)c1ncc(Cl)s1` [Example 242, 5-chloro-N-((1S,2R,3R)-3-(2-(2-fluorophenyl)-6-(pyridin-2-yl)-1H-imidazo[4,5-c]pyridin-1-yl)-2-hydroxycyclohexyl)thiazole-2-carboxamide], for which the IC50 in experiment [1] is at most 0.1 µM; in experiment [2] it was under 0.5 µM; in experiment [3], at most 0.1 µM.
Regarding `Cc1cnn(-c2cc3c(cn2)nc(CC(C)C)n3[C@@H]2CCC[C@H](NC(=O)c3ncc(Cl)s3)[C@H]2O)n1` [Example 243, 5-chloro-N-((1S,2R,3R)-2-hydroxy-3-(2-isobutyl-6-(4-methyl-2H-1,2,3-triazol-2-yl)-1H-imidazo[4,5-c]pyridin-1-yl)cyclohexyl)thiazole-2-carboxamide], the IC50 is at most 0.1 µM in experiment [1], under 0.5 µM in experiment [2] and at most 0.1 µM in experiment [3].
Consider `O=C(N[C@H]1CCC[C@@H](n2c(-c3ccccc3F)nc3cnc(-c4ncccn4)cc32)[C@@H]1O)c1ncc(Cl)s1` [Example 245, 5-chloro-N-((1S,2R,3R)-3-(2-(2-fluorophenyl)-6-(pyrimidin-2-yl)-1H-imidazo[4,5-c]pyridin-1-yl)-2-hydroxycyclohexyl)thiazole-2-carboxamide], for which the half-maximal inhibitory concentration (IC50) is at most 0.1 µM in experiment [1], under 0.5 µM in experiment [2] and at most 0.1 µM in experiment [3].

The values are drawn from patent US20260159512A1, “BCAT2 INHIBITORS” (AGIOS PHARMACEUTICALS, INC., priority 2021, published 2026).
